# Data published in patent US20170209417A1, “POLYCOMPLEX GEL FOR TREATING DISEASES OF INTESTINAL/DIGESTIVE TRACT” (priority 2014, published 2017).
# Legend:
# [1] = tested on: allergic agglutinating autoantibodies; details: in vivo, iv
# rabbits = details: rabbit, in vivo
# Protocol: Besides, it is necessary to point out that the claimed polycomplex gel is characterized by the absence of allergenic properties. Considering the fact that nowadays, an obligatory stage of a new medicine study is the evaluation of the allergenicity thereof, the claimed polycomplex gel has passed a verification on the basis of the Arthus-Sakharov test. For this purpose, six rabbits of both sexes weighting from 2.0 to 2.5 kg were injected with thymogen under sterile conditions subcutaneously on one side of the back with the dose of 10 mg/kg in 1.0 ml of sodium chloride isotonic solution and 1 ml of hors serum subcutaneously into the back on the other side. The rabbits of the control group were injected, instead of thymogen, with 1 ml of sodium chloride isotonic solution. The injections of thymogen and of horse serum were repeated for 6 times with a 5-6 days' interval.
substance,measurement,setting,value
thymogen,Titer growth of allergic agglutinating autoantibodies,[1],not accompanied by any titer growth
same,"Allergenicity (conclusion, standard methods)",rabbits,not allergenic
